Data as given in patent US11229204B2, “Herbicidal composition comprising at least one phenolic active compound” (UNIVERSITÉ DE LIÈGE, priority 2018, dated 2022).

Experiments:
[1] = test system: Raphanus sativus and Lepidium sativum; conditions: 27 flavonoids tested; only poor results on radical elongation for the highest tested concentration of 10^−4M; cited from earlier work
Trifolium incarnatum = assay: Pre-emergence activity, experiment n° 2: hypocotyl and root lengths of seeds on moistened filter paper; format: in vivo; conditions: 100 mg/L in methanol 1%
Description: Seeds of Trifolium incarnatum were obtained from ECOSEM industry (Belgium). Filter papers were placed in petri dishes and moistened with 2 ml of methanol 1% solution for the seedling control, or with myricitrin solution at 100 mg/L in methanol 1% for the treated seedling. Methanol was identified as a solvent not interfering with the pre-emergence of plants. Ten seeds of Trifolium incarnatum were then placed immediately in each petri dish and three replicates were prepared. All petri dishes were randomly placed in a growth chamber at a temperature of 23±1° C., in the dark and the hypocotyls and root lengths were measured after 7 days.

SMILES | effect on germination and radical elongation [1] | seed germination compared with control (Trifolium incarnatum; 7 incubation days) | development of roots and hypocotyls (Trifolium incarnatum; 7 days (FIG. 5)) | phytotoxic effect on the pre-emergence in comparison with the control (Trifolium incarnatum; 7 days, 23±1° C., dark (FIG. 5))
COc1c(-c2ccccc2)oc2ccccc2c1=O [3-OCH3-flavone] | act on germination and on radical elongation | – | – | –
COc1ccc(-c2cc(=O)c3ccccc3o2)cc1OC [3′,4′-di-OCH3-flavone] | act on germination and on radical elongation | – | – | –
C[C@@H]1O[C@@H](Oc2c(-c3cc(O)c(O)c(O)c3)oc3cc(O)cc(O)c3c2=O)[C@H](O)[C@H](O)[C@H]1O [myricitrin] | – | inhibited seed germination | inhibited | significant phytotoxic effect
O=C1C[C@@H](c2ccccc2)Oc2cc(O)cc(O)c21 [pinocembrin, 5,7-di-OH-flavanone] | act on germination and on radical elongation | – | – | –
O=c1c(O)c(-c2ccc(O)c(O)c2)oc2cc(O)cc(O)c12 [quercetin, 3,5,7,3′,4′-penta-OH-flavone] | act on germination and on radical elongation | – | – | –
